“Also recorded” adds a separate entry of the source.
Tests used:
AML = settings: older patients, Mylotarg alone, registration trials; cited from earlier work
[1] = pharmacokinetic interaction with co-administered oncolytics in preclinical models; type: in vivo; settings: several oncolytics
[2] = test system: P-gp-associated resistance; experiment: in vivo activity in preclinical animal studies
[3] = combination of verapamil and VAD (vincristine, doxorubicin, dexamethasone); cited from earlier work

gemtuzumab ozogamicin [Mylotarg]
rate of complete remission (CR+CRp) (AML): 26%

O[C@@H](COc1cccc2ncccc12)CN1CCN([C@@H]2c3ccccc3[C@@H]3[C@H](c4ccccc42)C3(F)F)CC1 [zosuquidar]
pharmacokinetic interaction with co-administered chemotherapy [1]: no pharmacokinetic interaction; also recorded: minimal pharmacokinetic (PK) interactions | in vivo activity [2]: good in vivo activity

COc1ccc(CCN(C)CCCC(C#N)(c2ccc(OC)c(OC)c2)C(C)C)cc1OC (stereo not shown) [verapamil]
patients responded [3]: 5 of 22

From US20070009531A1 (priority 2005, published 2007)
